US11485762B2, “Compositions and methods for inhibition of L-plastin activity in osteoclasts to reduce bone loss” (University of Maryland, Baltimore, priority 2017, dated 2022)

Experiments:
Format in all cases: cell-based, mouse
osteoclasts [1] = assay: Formation of nascent sealing zones (NSZs) in osteoclasts plated on dentine slices (actin staining); details: for formation of NSZs: sNT-LPL peptides, dentine; for formation of NSZs, time course: 3, 6 and 10 hours, LPL and integrin αv immunostaining; for number of NSZs: dentine slices 2-3 hours, versus basal level
Method: (§1) The vector pTAT-HA has an N-terminal 6-histidine leader (Nagahara et al., 1998, Nature Medicine, 4:1449-1452). […] For transduction with TAT-fused peptides (100-150 nM), osteoclasts were first kept in serum-free α-MEM for two hours. Afterward, TAT proteins of interest, bone particles, and TNF-α were added to cells in serum-free α-MEM Lysates were made from these cells for immunoprecipitation and immunoblotting analyses. Osteoclasts plated on dentine slices in the presence of TAT-proteins of interest and TNF-α for 3-6 hours or 12-14 hours were used for immunostaining or actin staining analyses. Osteoclast cultures treated only with TNF-α were used as controls.
(§2) Osteoclast precursors (10^5 cells/coverslips) were cultured on glass cover slips or dentine slices. Fluorescent labeling was done in osteoclasts transduced or untransduced with TAT-proteins. HA or TAT antibody was used to identify the transduced peptides of interest; rhodamine phalloidin was used to determine actin organization (Chellaiah et al., 2000, J. Cell Biol., 148: 665-678; Chellaiah et al., 2000, J. Biol. Chem., 275: 11993-12002). Immunostained and actin stained osteoclasts were photographed with a Bio-Rad confocal laser-scanning microscope. Images were stored in TIF image format and processed by Adobe Photoshop (Adobe Systems Inc., Mountain View. Calif.).
After cells were kept in the serum-free α-MEM medium for two hours, LPL peptides of interest were added to a final concentration of 100-150 nM to cells in serum-free media (Chellaiah et al, 2000, J. Biol. Chem., 275: 11993-12002). Osteoclasts transduced with peptides of interest and added with bone particles in the presence of TNF-α for 3-4 hours or 12-14 hours were used for lysate preparations. Cells plated on coverslips and treated with peptides were used for actin staining to detect podosomes. […] These cells were used for Actin staining with rhodamine-phalloidin or immunostaining analyses (Chellaiah et al., 2000, J. Biol. Chem., 275: 11993-12002; Chellaiah et al., 2000, J. Cell. Biol., 148: 665-678; Chellaiah et al., 2003, J Biol Chem 278: 29086-29097).
(§3) Osteoclasts were fixed with 3% paraformaldehyde for 20 minutes and permeabilized with 0.1% Triton X-100 in PBS for 5 minutes. Subsequently, osteoclasts were stained with a primary (HA or integrin αv) and secondary antibody as described (Chellaiah et al., 2003, J Biol Chem 278: 29086-29097). Actin staining was done with rhodamine-phalloidin as described (Chellaiah et al., 2000, J. Biol. Chem., 275: 11993-12002; Chellaiah et al., 2000, J. Cell Biol., 148: 665-678). Cells were washed and mounted on a slide in a mounting solution (Vector Laboratories) and sealed with nail polish. Immunostained osteoclasts were photographed with a Bio-Rad and Nikon confocal microscope. Images were stored in TIF image format and processed by Adobe Photoshop (Adobe Systems Inc., Mountain View, Calif.).

osteoclasts [2] = assay: Podosome organization in osteoclasts (actin staining); details: for formation of podosomes: sNT-LPL peptides; for actin modulation involved in podosome assembly/disassembly: TAT-fused LPL peptides
Method: as §2
(§4) After cells were kept in the serum-free α-MEM medium for two hours, LPL peptides of interest were added to a final concentration of 100-150 nM to cells in serum-free media (Chellaiah et al, 2000, J. Biol. Chem., 275: 11993-12002). Osteoclasts transduced with peptides of interest and added with bone particles in the presence of TNF-α for 3-4 hours or 12-14 hours were used for lysate preparations. Cells plated on coverslips and treated with peptides were used for actin staining to detect podosomes. After transduction for 30 min., osteoclasts were re-plated on dentine slices with respective LPL peptide and TNF-α for 3-6 hours or 12-14 hours. These cells were used for Actin staining with rhodamine-phalloidin or immunostaining analyses (Chellaiah et al., 2000, J. Biol. Chem., 275: 11993-12002; Chellaiah et al., 2000, J. Cell. Biol., 148: 665-678; Chellaiah et al., 2003, J Biol Chem 278: 29086-29097).
as §3

osteoclasts [3] = assay: Osteoclast migration (transwell and phagokinesis assays)
Source text: Transwell migration was done essentially as reported previously (Chellaiah et al., 2000, J. Cell Biol., 148: 665-678). Osteoclasts that migrated to the underside of the transwell membrane were stained with hematoxylin stain. Dried filters ware cut out and mounted with a permount solution (Thomas Scientific, Swedesboro, N.J.) on a glass slide. Cells were viewed under X40 objective in an inverted microscope. Six fields per transwell insert were counted using a Zeiss microscope as described previously (Chellaiah et al., 2000, J. Biol. Chem., 275: 11993-12002). Data are presented as the number of cells per migrated field (mean±SD) from one experiment.
Cell migration (phagokinesis and transwell migration) assays were done as described previously (Chellaiah et al., 2000, J. Cell Biol., 148: 665-678). Osteoclasts transduced with sNT-LPL peptides (P1, P2, P5, and P6) were used for these assays. Three to four transwells were used for each treatment. Migrated cells at the bottom of the wells were counted in 3-4 independent fields/transwell filter. Data are presented as migrated cells/field (mean±SD). The experiment was repeated with three osteoclast preparations. In phagokinesis assay, cell motility was assessed by measuring the areas free of gold particles. By using a grided reticule (Boyce Scientific. Inc.) in the eyepiece of a Nikon microscope, areas free of gold particles were measured using a 10× objective. Areas free of gold particles were represented as area moved in mm^2 (Chellaiah et al., 2000, J. Cell Biol., 148: 665-678),

osteoclasts [4] = assay: Sealing ring formation in osteoclasts plated on dentine; details: for formation of mature sealing rings: sNT-LPL peptides, time course to 10 hours; for number of sealing rings: dentine 10-12 hours, TNF-α
Method: as §1, §2, §4
Osteoclasts were fixed with 3% paraformaldehyde for 20 minutes and permeabilized with 0.1% Triton X-100 in PBS for 5 minutes. Subsequently, osteoclasts were stained with a primary (HA or integrin αv) and secondary antibody as described (Chellaiah et al., 2003, J Biol Chem 278: 29086-29097). Actin staining was done with rhodamine-phalloidin as described (Chellaiah et al., 2000, J. Biol. Chem., 275: 11993-12002; Chellaiah et al., 2000, J. Cell Biol., 148: 665-678). […]

[5] = phagokinesis and transwell migration assays, sNT-LPL peptides
[6] = transwell migration, TAT-fused LPL peptides

Q: Which “formation of NSZs” value (osteoclasts [1]) does the source give for “MARGAVADEE [Peptide P2, TAT-fused sNT-LPL peptide, Ser-5 and Ser-7 substituted to Alanine (A5A7)]” here?
A: no inhibitory effect

Q: What about the formation of podosomes (osteoclasts [2]) of the same molecule?
A: Neither the migration (FIG. 12A-FIG. 12C) nor the formation the podosomes (FIG. 12D) was affected

Q: What about the migration (osteoclasts [3]; [5]) of the same molecule?
A: Neither the migration (FIG. 12A-FIG. 12C) nor the formation the podosomes (FIG. 12D) was affected

Q: Which “formation of NSZs, time course” value (osteoclasts [1]) does the source give for “MARGSVSDEE [Peptide P1, TAT-fused small molecular weight (10aa) amino-terminal LPL peptide, unsubstituted (S5S7)]” here?
A: attenuates

Q: What about the “formation of NSZs” value (osteoclasts [1]) of the same molecule?
A: considerable decrease

Q: What about the “formation of mature sealing rings” value (osteoclasts [4]) of the same molecule?
A: abrogated

Q: What about the formation of podosomes (osteoclasts [2]) of the same molecule?
A: Neither the migration (FIG. 12A-FIG. 12C) nor the formation the podosomes (FIG. 12D) was affected

Q: And the migration (osteoclasts [3]; [5])?
A: Neither the migration (FIG. 12A-FIG. 12C) nor the formation the podosomes (FIG. 12D) was affected

Q: How did the “formation of NSZs, time course” value (osteoclasts [1]) turn out when “SRSGMVEEAD [Peptide P5, TAT-fused scrambled sNT-LPL peptide, control, reference compound]” was run?
A: time-dependent organization

Q: What about the “formation of NSZs” value (osteoclasts [1]) of the same molecule?
A: no inhibitory effect

Q: What about the “formation of mature sealing rings” value (osteoclasts [4]) of the same molecule?
A: time-dependent organization

Q: And the formation of podosomes (osteoclasts [2])?
A: Neither the migration (FIG. 12A-FIG. 12C) nor the formation the podosomes (FIG. 12D) was affected

Q: What about the migration (osteoclasts [3]; [5]) of the same molecule?
A: Neither the migration (FIG. 12A-FIG. 12C) nor the formation the podosomes (FIG. 12D) was affected

B1: FL-LPL: HA-TAT fused full-length L-plastin protein (70-75 kDa), purified from bacterial expression vector pTAT-HA (protein, UniProt P13796 1-627, looked up)
chain: MARGSVSDEEMMELREAFAKVDTDGNGYISFNELNDLFKAACLPLPGYRVREITENLMATGDLDQDGRISFDEFIKIFHGLKSTDVAKTFRKAINKKEGICAIGGTSEQSSVGTQHSYSEEEKYAFVNWINKALENDPDCRHVIPMNPNTNDLFNAVGDGIVLCKMINLSVPDTIDERTINKKKLTPFTIQENLNLALNSASAIGCHVVNIGAEDLKEGKPYLVLGLLWQVIKIGLFADIELSRNEALIALLREGESLEDLMKLSPEELLLRWANYHLENAGCNKIGNFSTDIKDSKAYYHLLEQVAPKGDEEGVPAVVIDMSGLREKDDIQRAECMLQQAERLGCRQFVTATDVVRGNPKLNLAFIANLFNRYPALHKPENQDIDWGALEGETREERTFRNWMNSLGVNPRVNHLYSDLSDALVIFQLYEKIKVPVDWNRVNKPPYPKLGGNMKKLENCNYAVELGKNQAKFSLVGIGGQDLNEGNRTLTLALIWQLMRRYTLNILEEIGGGQKVNDDIIVNWVNETLREAKKSSSISSFKDPKISTSLPVLDLIDAIQPGSINYDLLKTENLNDDEKLNNAKYAISMARKIGARVYALPEDLVEVNPKMVMTVFACLMGKGMKRV
modifications: full-length HA-TAT tag
notes: HA-TAT fused full-length L-plastin protein (70-75 kDa), purified from bacterial expression vector pTAT-HA
Q: With B1 as the molecule, how does the “number of NSZs” value (osteoclasts [1]; TNF-α) read?
A: substantial increase above the basal level

Q: What about the “number of sealing rings” value (osteoclasts [4]) of the same molecule?
A: Multiple sealing rings

Q: And the “number of sealing rings” value (osteoclasts [4]; listed as PL-LPL)?
A: increased

Q: And the “actin modulation involved in podosome assembly/disassembly” value (osteoclasts [2])?
A: does not affect

Q: And the migration (osteoclasts [3]; [6])?
A: does not affect

B2: mutated FL-LPL: TAT-fused full-length L-plastin with Ser-5 and Ser-7 mutated to Ala-5 and Ala-7 (protein, UniProt P13796 1-627, looked up, variant S5A S7A)
chain: MARGAVADEEMMELREAFAKVDTDGNGYISFNELNDLFKAACLPLPGYRVREITENLMATGDLDQDGRISFDEFIKIFHGLKSTDVAKTFRKAINKKEGICAIGGTSEQSSVGTQHSYSEEEKYAFVNWINKALENDPDCRHVIPMNPNTNDLFNAVGDGIVLCKMINLSVPDTIDERTINKKKLTPFTIQENLNLALNSASAIGCHVVNIGAEDLKEGKPYLVLGLLWQVIKIGLFADIELSRNEALIALLREGESLEDLMKLSPEELLLRWANYHLENAGCNKIGNFSTDIKDSKAYYHLLEQVAPKGDEEGVPAVVIDMSGLREKDDIQRAECMLQQAERLGCRQFVTATDVVRGNPKLNLAFIANLFNRYPALHKPENQDIDWGALEGETREERTFRNWMNSLGVNPRVNHLYSDLSDALVIFQLYEKIKVPVDWNRVNKPPYPKLGGNMKKLENCNYAVELGKNQAKFSLVGIGGQDLNEGNRTLTLALIWQLMRRYTLNILEEIGGGQKVNDDIIVNWVNETLREAKKSSSISSFKDPKISTSLPVLDLIDAIQPGSINYDLLKTENLNDDEKLNNAKYAISMARKIGARVYALPEDLVEVNPKMVMTVFACLMGKGMKRV
modifications: full-length HA-TAT tag
Q: How did the “number of NSZs” value (osteoclasts [1]; TNF-α) turn out when B2 was run?
A: more or less equal

Q: And the “formation of NSZs, lower magnification (FIG. 7)” value (osteoclasts [1]; dentine slices 3-4 hours, TNF-α)?
A: did not affect

Q: What about the “actin modulation involved in podosome assembly/disassembly” value (osteoclasts [2]) of the same molecule?
A: does not affect

Q: And the migration (osteoclasts [3]; [6])?
A: does not affect
